# In patent US12208159B2, “Compositions, methods and kits for treating a contact lens” (University of Houston System, priority 2016, dated 2025):
# “And” between values parts separate entries of the source, which are not always exact repeats. Equal values may be shown once.
# Legend:
# [1] = Loading of molecules into commercial contact lenses (Comfilcon A); format: physicochemical
# Method: (§1) Briefly, commercial lenses are individually immersed in wells of a 24 well plate, each containing 1 mL PBS solution of FITC-F ([…]), FITC ([…]), Cip (100 mM) or F-Cip (100 mM), and incubated for 18 h. Then the lenses are washed with PBS three times for 5 min each. All incubation and wash solutions are collected and the amount of each compound is quantified by spectrophotometry. Standard curves are generated with seven standard samples with known concentrations for each individual compound of interest. Specifically, fluorescent compounds FITC and FITC-F are quantified by fluorescence emission at 520 nm (lex. 485 nm), and Cip and F-Cip are quantified by absorbance at 275 nm. The amount of each compound in the above collected solutions is then measured with the standard curve. The amount of the compound incorporated into lenses was determined by subtracting the amount in solution from the total amount added initially.
# (§2) Commercial lenses of the above 4 types were removed from blister packs, and blotted gently to remove excess solution. Contact lenses were placed individually into glass vials and immersed in 1 mL of FITC-C8F15 or FITC solution (15.6 μM in phosphate buffered saline) for 24 hours at room temperature. At the end of incubation, lenses were washed three times using phosphate buffered saline. […]
# [2] = Time course release of individual compounds from contact lenses; format: physicochemical; details: Comfilcon A
# Method: The modified Comfilcon A lenses are placed into individual wells of a 24 well plate with 1 mL PBS in each well at room temperature. The PBS solution is replaced with fresh PBS every hour for up to 8 h or 15 h, or every 10 min for 2 h or 6 h. The amount of fluorescent compound released into the collected PBS aliquots is quantified spectrophotometrically based on the above standard curve. The amount of F-Cip released into the collected PBS aliquots is quantified using LC-MS (LCQ Deca XP plus with Surveyor LC, Thermo Fisher, Waltham, MA) with electrospray ionization in positive ion mode. Samples ([…] each) are loaded onto the analytical column at […] (Kinetex XB-C18, 2.×50 mm, […], Phenomenex) with the following gradient: 0-3 min, 10-75% (B); 3-7.5 min, 75-91% (B). The mobile phase consists of (A) water containing 0.1% formic acid and (B) acetonitrile containing 0.1% formic acid. Mass spectrometric parameters are as follows: 250° C. capillary temperature, 45 units sheath gas, 10 units aux gas and 4.5 kV spray voltage. […]
# [3] = Loading of molecules into commercial contact lenses (Lotrafilcon B); format: physicochemical; details: 24 hours at room temperature, listed as FITC-C8F15
# Method: as §1, §2
# [4] = test system: P. aeruginosa 19660; experiment: Ex vivo porcine eye infection model, antimicrobial activity of loaded contact lenses; design: species or system Pseudomonas aeruginosa (porcine eyes); details: Comfilcon A lenses modified with the compound, on infected scratched porcine eyes, 12 h
# Method: Upon arrival, eyelids and connective tissues are removed and the porcine eyes are sanitized using 5% penicillin/streptomycin (Sigma-Aldrich, St. Louis, MO) for 1 h followed by washing thrice with PBS. Six scratch wounds with a 3×3 crosshatch pattern of length about 1 cm are created on each cornea using a 27G needle. The eyes are placed into holders and 100 ml of bacterial solution containing 10^6 CFU (see “Antibacterial activity of F-Cip” section discussed above) applied to each cornea. The eyes are left at room temperature in a biosafety cabinet for 5 h. After rinsing with 10 mL of PBS, control and modified Comfilcon A contact lenses are placed individually onto the eyes. […] One eye without scratches but incubated with bacteria served as an additional control. A custom-made apparatus is used to flow culture medium over the surface of the porcine eyes. […] Then 100 ml of the bacterial suspension from each sample was taken out and added into a 96-well plate in triplicate, and absorbance at 620 nm was measured and plotted as percentage of bacterial growth inhibition compared to the corneas infected with bacteria but without any treatments. […]
# [5] = test system: P. aeruginosa 19660; experiment: In vitro antimicrobial activity of F-Cip-loaded Comfilcon A contact lenses; format: cell-based, Pseudomonas aeruginosa; details: Comfilcon A lenses loaded with the compound
# [6] = test system: Pseudomonas aeruginosa (PA) ATCC 19660; experiment: Antibacterial activity of F-Cip (growth inhibition, absorbance at 620 nm); format: cell-based; details: ATCC19660, P. aeruginosa ATCC 19660, 18 h at 37° C., n > 3
# Method: The strain is inoculated and grown at 37° C. for 18 h. The bacterial suspension ([…]) is added into 100 mL of nutrient broth and incubated for 2 h to reach a log growth phase. The resulting bacterial suspension is adjusted to a concentration of ˜10^7 cfu/mL and […] are placed into each well of a 96 well plate. Fifty microliters of F-Cip solution are added into the 96 well plate and incubated at 37° C. for 18 h. The inhibition of microbial growth is determined by measuring the absorbance at 620 nm.
# [7] = Lens transparency after modification (light transmission); details: Comfilcon A lenses embedded with the compound
# [8] = test system: human telomerase corneal epithelial cells (hTCEpi); format: cell-based
# Method: Telomerase modified human corneal epithelial cells were seeded into wells of a 96 well plate with […] KGM-2 medium (Lonza Ltd, Switzerland) and incubated at 37° C. until ˜80% confluence. […] Cells treated with 0.05% benzalkonium chloride (BAC) and without any treatment served as controls. The plate was incubated at 37° C. for 18 h, and cell viability was determined using a cell counting kit-8 assay. […] All lenses are taken out, and cell viability was determined using a cell counting kit-8 assay (Dojindo Molecular Technologies, Inc. Japan).
molecule,measurement,setting,value
O=C(O)c1cc(NC(=S)NCC(F)(F)C(F)(F)C(F)(F)C(F)(F)C(F)(F)C(F)(F)C(F)(F)F)ccc1-c1c2ccc(=O)cc-2oc2cc(O)ccc12 [Compound 6],amount attached relative to the amount of FITC attached,"[1]; Comfilcon A, 24 hours at room temperature, listed as FITC-C8F15",11 times and 9 times
same,duration of nearly linear release,[2]; solution exchange rate 1 mL/h,6 h
same,release profile,[2]; solution exchange rate 1 mL/h,sustained profile
same,release rate,[2]; solution exchange rate 1 mL/h,10.5 % per hour
same,release reached at 15 h,"[2]; solution exchange rate 1 mL/h, 15 h",~90%
same,duration of sustained linear release,[2]; solution exchange rate 6 mL/h,120 min
same,release rate,[2]; solution exchange rate 6 mL/h,26.5 % per hour
same,time to reach release plateau,[2]; solution exchange rate 6 mL/h,270 min
same,amount attached relative to the amount of FITC attached,[3],6.5 times and 5 times
"O=C(O)c1cn(C2CC2)c2cc(N3CCNCC3)c(F)cc2c1=O [Compound 12, Ciprofloxacin]",bacterial growth inhibition,[4],37.5±8.2%
same,amount loaded onto lens,"[1]; Comfilcon A lenses, incubated 18 h in PBS solution",3.56±4.51 nmol/lens
same,growth inhibition,[5],35.2%
same,release at plateau,[2]; solution exchange rate 1 mL/h,~60%
same,release profile,[2]; solution exchange rate 1 mL/h,typical burst release profile
same,time to reach release plateau (no more release),[2]; solution exchange rate 1 mL/h,3 h
same,IC50,[6],130 ± 35 nM
same,transmission profile compared with fresh unmodified lens,[7]; between 200 nm and 800 nm,significantly overlap
same,Transmission of modified lenses,[7]; between 400 nm and 750 nm,about 100%
Benzalkonium chloride [Benzalkonium chloride (BAC)],cells killed,[8],about 100%
fluorescein isothiocyanate [Compound 7],release at plateau,[2]; solution exchange rate 1 mL/h,~60%
same,release profile,[2]; solution exchange rate 1 mL/h,typical burst release profile
same,time to reach release plateau (no more release),[2]; solution exchange rate 1 mL/h,≤ 2 h
same,time to reach release plateau,[2]; solution exchange rate 6 mL/h,≤ 50 min
